Data: ChEMBL document CHEMBL1127241, “Taxol photoaffinity labels 2. Synthesis and biological evaluation of N-(4-azidobenzoyl)-N-debenzoyltaxol, N-(4-azido-2,3,5,6-tetrafluorobenzoyl)-N-debenzoyltaxol, and 7-(4-azido-2,3,5,6-tetrafluorobenzoyl)taxol” (1994)

How the values were obtained:
[1] = target: Tubulin alpha chain (Sus scrofa) (UniProt P02550); assay: Concentration which causes polymerization of 50% of the tubulin present in 15 min at 37 degree Celsius (stimulation of microtubule assembly) expressed as ED50 ratio relative to taxol; type: functional
Sequence of Tubulin alpha chain (Sus scrofa) (P02550 whole entry, looked up): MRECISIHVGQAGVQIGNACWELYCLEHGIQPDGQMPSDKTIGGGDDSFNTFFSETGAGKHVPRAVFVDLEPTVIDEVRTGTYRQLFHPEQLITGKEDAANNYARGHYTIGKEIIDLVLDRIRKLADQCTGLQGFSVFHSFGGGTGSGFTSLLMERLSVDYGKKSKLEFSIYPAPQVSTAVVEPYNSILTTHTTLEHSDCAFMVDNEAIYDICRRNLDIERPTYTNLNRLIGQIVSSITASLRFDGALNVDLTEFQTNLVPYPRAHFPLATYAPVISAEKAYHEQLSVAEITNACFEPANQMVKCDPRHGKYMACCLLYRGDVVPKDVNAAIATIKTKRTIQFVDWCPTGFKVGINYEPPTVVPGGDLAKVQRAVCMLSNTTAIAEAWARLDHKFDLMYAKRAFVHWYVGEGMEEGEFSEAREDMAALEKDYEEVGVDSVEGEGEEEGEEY

B16 = assay: Concentration which produces 50% inhibition of proliferation of B16 melanoma cells after 40 hr incubation expressed as ED50 ratio relative to taxol; type: functional, Mus musculus

ED50 ratio [1]	SMILES	ED50 ratio (B16)
21.4	CC(=O)O[C@H]1C(=O)[C@]2(C)[C@@H](OC(=O)c3ccc(N=[N+]=[N-])cc3)C[C@H]3OC[C@@]3(OC(C)=O)[C@H]2[C@H](OC(=O)c2ccccc2)[C@]2(O)C[C@H](OC(=O)[C@H](O)[C@@H](NC(=O)c3ccccc3)c3ccccc3)C(C)=C1C2(C)C	30
4.6	CC(=O)O[C@H]1C(=O)[C@@]2(C)[C@H]([C@H](OC(=O)c3ccccc3)[C@]3(O)C[C@H](OC(=O)[C@H](O)[C@@H](NC(=O)c4c(F)c(F)c(N=[N+]=[N-])c(F)c4F)c4ccccc4)C(C)=C1C3(C)C)[C@]1(OC(C)=O)CO[C@@H]1C[C@@H]2O	14.8
2	CC(=O)O[C@H]1C(=O)[C@@]2(C)[C@H]([C@H](OC(=O)c3ccccc3)[C@]3(O)C[C@H](OC(=O)[C@H](O)[C@@H](NC(=O)c4ccc(N=[N+]=[N-])cc4)c4ccccc4)C(C)=C1C3(C)C)[C@]1(OC(C)=O)CO[C@@H]1C[C@@H]2O	4.6
> 22.4	CC(=O)O[C@H]1C(=O)[C@]2(C)[C@@H](OC(=O)c3c(F)c(F)c(N=[N+]=[N-])c(F)c3F)C[C@H]3OC[C@@]3(OC(C)=O)[C@H]2[C@H](OC(=O)c2ccccc2)[C@]2(O)C[C@H](OC(=O)[C@H](O)[C@@H](NC(=O)c3ccccc3)c3ccccc3)C(C)=C1C2(C)C	–
